Experimental findings from patent US12612410B2 (CHILDREN'S HOSPITAL MEDICAL CENTER, priority 2020, dated 2026) are described below.

What all share (assay type): cell-based
In test [1] the test system is NF-κB. Briefly: NF-kB SEAP reporter assay in THP-1-Blue NF-κB cells, Pam3CSK4 stimulation. The conditions noted are these: Pam3CSK4 1 ng/mL, 24 hours, read-out: NF-κB Pam3SCK4 IC50. Here is the method:
(§1) THP-1-Blue NF-xB cells (InvivoGen) carrying a stable integrated NF-κB-inducible secreted embryonic alkaline phosphatase (SEAP) reporter construct were plated at a concentration of 1×10^5 cells per well. The cells were stimulated with Pam3CSK4 (1 ng/mL) or hIL1B (1 ng/mL). After 10-20 minutes, the cells were then treated with vehicle (DMSO) or serial dilutions of the test compounds (10 doses tested for each test compound, with a 1:10 dilution series starting at 1 μM or 3 μM) with a final volume of 200 μL for 24 hours at 37° C. After 24 hours, the cells were centrifuged and 20 μL supernatant was incubated with 180 μL QUANTI-Blue reagent at 37° C. for 30-60 minutes. The levels of NF-κB-induced was measured in a microplate reader at 620 nm.
In general terms: Reporter assays use an easily measured gene product as a stand-in for the process of interest.

For test [2], the system named is NF-κB. The test can be described thus: NF-kB SEAP reporter assay in THP-1-Blue NF-κB cells, hIL1B stimulation. The conditions noted are these: hIL1B 1 ng/mL, 24 hours, read-out: NF-κB IL1B IC50. The procedure: as §1
The test system of another test is MOLM14 F691L cells. Briefly: MOLM14 F691L cell viability assay (Cell Titer Glo). The conditions noted are these: Homo sapiens, MOLM-14, 48 h. Summed up:
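MOLM14 cells carrying FLT3 D835Y or F691L were seeded at 1000 cells/well in RPMI-1640 with 20% FBS and dosed at 22 concentrations, 1:2 dilutions from 10 μM. Viability after 48 h by Cell Titer Glo luminescence; 2.3 μM bortezomib as cytotoxic control.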
In general terms: ATP-based viability assays read luminescence as a measure of living cells.

With `CC(C)(C)c1cn2c(-c3cccc(N[C@@H]4CCCNC4)n3)cnc2cn1` [Compound 129, (R)-6-(6-(tert-butyl)imidazo[1,2-a]pyrazin-3-yl)-N-(piperidin-3-yl)pyridin-2-amine], the 50% inhibitory concentration (IC50) with NF-κB [1] amounted to 0.011 µM; in the test on NF-κB [2], 0.07 µM; in the test on MOLM14 F691L cells, 0.163 µM.

Usually IC50 stands for the concentration needed to halve the response being measured.
